Results reported in patent publication US9382188B2, “Aromatic ring compound” (TAKEDA PHARMACEUTICAL COMPANY LIMITED, priority 2012, dated 2016).

Biological target: T1, human GPR40 (Homo sapiens, UniProt O14842)
T1 construct: expressed in transfected cells
Test: Evaluation of human GPR40 agonist activity with increase in intracellular Ca2+ concentration as an index (FLIPR Tetra)
Type: cell-based
Settings: test compound 1 μM; CHO(dhfr-) cells stably expressing human GPR40; 100% = activity of 1 μM WO2009/048527 Example 99.2, 0% = DMSO
Procedure: Evaluation of human GPR40 agonist activity with increase in intracellular Ca^2+ concentration as an index
CHO(dhfr-) cells that stably expressed human GPR40 were suspended in MEMα (Nikken Bio Medical Laboratory) containing 10% dialysis serum (GEMINI BIO-PRODUCTS), 10 mM HEPES (Invitrogen), 100 U/mL penicillin, 100 μg/mL streptomycin (Invitrogen), and plated on a 384 well black/clear cell culture plate at 10,000 cells/well. After culture overnight in a CO2 incubator at 37° C., the culture supernatant was removed, and a loading buffer [dye attached to Calcium 5 Assay Kit (Molecular Devices) was dissolved in an assay buffer (20 mM HEPES, 0.2% fatty acid-free BSA (Sigma-Aldrich), 2.5 mM probenecid (DOJINDO)-containing HBSS (Invitrogen)) added with 0.025% Cremophor EL (DOJINDO)] was added at 37.5 μL/well. After incubation in a CO2 incubator at 37° C. for 1 hr, the cells were stood at room temperature for 15 min, an assay buffer containing the test compound at a final concentration of 1 μM was added at 12.5 μL/well in FLIPR Tetra (Molecular Devices), and the fluorescence amount was successively measured. Human GPR40 agonist activity calculated using an increase in the intracellular Ca^2+ concentration as an index, wherein the activity of 1 μM of the compound described in WO 2009/048527 (WO2009/048527 Example 99.2) was 100%, and the activity when DMSO was added instead of the test compound was 0%.

T1 sequence (O14842 whole entry): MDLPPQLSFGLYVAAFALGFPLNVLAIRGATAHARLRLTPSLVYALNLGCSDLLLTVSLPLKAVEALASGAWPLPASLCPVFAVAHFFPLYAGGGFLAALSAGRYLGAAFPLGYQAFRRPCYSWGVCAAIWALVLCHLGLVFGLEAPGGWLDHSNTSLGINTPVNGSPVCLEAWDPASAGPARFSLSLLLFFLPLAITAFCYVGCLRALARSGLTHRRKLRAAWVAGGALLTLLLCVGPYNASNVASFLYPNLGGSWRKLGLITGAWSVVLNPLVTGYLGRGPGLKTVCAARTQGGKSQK

SMILES | activation at 1 µM [%]
CC(C)(C)Cc1cc(OCc2cccc(C(CC(=O)O)C3CC3)c2)cnc1-c1cc(OC2CCCCO2)ccc1F (centres unmarked) [Example 44, 3-cyclopropyl-3-(3-(((5-(2,2-dimethylpropyl)-6-(2-fluoro-5-(tetrahydro-2H-pyran-2-yloxy)phenyl)pyridin-3-yl)oxy)methyl)phenyl)propanoic acid] | 3
CC(C)(C)Cc1cc(OCc2cccc(C(CC(=O)O)C3CC3)c2)cnc1-c1ccccc1 (centres unmarked) [Example 45, 3-cyclopropyl-3-(3-(((5-(2,2-dimethylpropyl)-6-phenylpyridin-3-yl)oxy)methyl)phenyl)propanoic acid] | 55
COc1cccc(-c2ncc(OCc3cccc(C(CC(=O)O)C4CC4)c3)cc2CC(C)(C)C)c1 (centres unmarked) [Example 46, 3-cyclopropyl-3-(3-(((5-(2,2-dimethylpropyl)-6-(3-methoxyphenyl)pyridin-3-yl)oxy)methyl)phenyl)propanoic acid] | 117
Cc1cccc(-c2ncc(OCc3cccc(C(CC(=O)O)C4CC4)c3)cc2CC(C)(C)C)c1 (centres unmarked) [Example 47, 3-cyclopropyl-3-(3-(((5-(2,2-dimethylpropyl)-6-(3-methylphenyl)pyridin-3-yl)oxy)methyl)phenyl)propanoic acid] | 92
COc1ccc(-c2ncc(OCc3cccc(C(CC(=O)O)C4CC4)c3)cc2CC(C)(C)C)cc1 (centres unmarked) [Example 48, 3-cyclopropyl-3-(3-(((5-(2,2-dimethylpropyl)-6-(4-methoxyphenyl)pyridin-3-yl)oxy)methyl)phenyl)propanoic acid] | -1
CC(C)(C)Cc1cc(OCc2cccc(C(CC(=O)O)C3CC3)c2)cnc1-c1cccc(OC(F)(F)F)c1 (centres unmarked) [Example 49, 3-cyclopropyl-3-(3-(((5-(2,2-dimethylpropyl)-6-(3-(trifluoromethoxy)phenyl)pyridin-3-yl)oxy)methyl)phenyl)propanoic acid] | -23
COc1ccccc1-c1ncc(OCc2cccc(C(CC(=O)O)C3CC3)c2)cc1CC(C)(C)C (centres unmarked) [Example 50, 3-cyclopropyl-3-(3-(((5-(2,2-dimethylpropyl)-6-(2-methoxyphenyl)pyridin-3-yl)oxy)methyl)phenyl)propanoic acid] | 9
CC(C)(C)Cc1cc(OCc2cccc(C(CC(=O)O)C3CC3)c2)cnc1-c1cccc(C(=O)O)c1 (centres unmarked) [Example 51, 3-(5-((3-(2-carboxy-1-cyclopropylethyl)benzyl)oxy)-3-(2,2-dimethylpropyl)pyridin-2-yl)benzoic acid] | 0
CC(C)(C)Cc1cc(OCc2cccc(C(CC(=O)O)C3CC3)c2)cnc1-c1cccc(C(F)(F)F)c1 (centres unmarked) [Example 52, 3-cyclopropyl-3-(3-(((5-(2,2-dimethylpropyl)-6-(3-(trifluoromethyl)phenyl)pyridin-3-yl)oxy)methyl)phenyl)propanoic acid] | 14
COc1ccc(OC)c(-c2ncc(OCc3cccc(C(CC(=O)O)C4CC4)c3)cc2CC(C)(C)C)c1 (centres unmarked) [Example 53, 3-cyclopropyl-3-(3-(((6-(2,5-dimethoxyphenyl)-5-(2,2-dimethylpropyl)pyridin-3-yl)oxy)methyl)phenyl)propanoic acid] | 99
COc1ccc(-c2ncc(OCc3cccc(C(CC(=O)O)C4CC4)c3)cc2CC(C)(C)C)cc1OC (centres unmarked) [Example 54, 3-cyclopropyl-3-(3-(((6-(3,4-dimethoxyphenyl)-5-(2,2-dimethylpropyl)pyridin-3-yl)oxy)methyl)phenyl)propanoic acid] | 3
CC(C)(C)Cc1cc(OCc2cccc(C(CC(=O)O)C3CC3)c2)cnc1-c1cccc(O)c1 (centres unmarked) [Example 55, 3-cyclopropyl-3-(3-(((5-(2,2-dimethylpropyl)-6-(3-hydroxyphenyl)pyridin-3-yl)oxy)methyl)phenyl)propanoic acid] | 126
COc1cc(OC)cc(-c2ncc(OCc3cccc(C(CC(=O)O)C4CC4)c3)cc2CC(C)(C)C)c1 (centres unmarked) [Example 56, 3-cyclopropyl-3-(3-(((6-(3,5-dimethoxyphenyl)-5-(2,2-dimethylpropyl)pyridin-3-yl)oxy)methyl)phenyl)propanoic acid] | 31
COc1cc(-c2ncc(OCc3cccc(C(CC(=O)O)C4CC4)c3)cc2CC(C)(C)C)c(F)cn1 (centres unmarked) [Example 57, 3-cyclopropyl-3-(3-(((3-(2,2-dimethylpropyl)-5′-fluoro-2′-methoxy-2,4′-bipyridin-5-yl)oxy)methyl)phenyl)propanoic acid] | 106

Results, then the molecule that gave them:

activation at 1 µM [%] | SMILES
114 | COc1ccc(C)c(-c2ncc(OCc3cccc(C(CC(=O)O)C4CC4)c3)cc2CC(C)(C)C)c1 (centres unmarked) [Example 58, 3-cyclopropyl-3-(3-(((5-(2,2-dimethylpropyl)-6-(5-methoxy-2-methylphenyl)pyridin-3-yl)oxy)methyl)phenyl)propanoic acid]
115 | COc1ccc(Cl)c(-c2ncc(OCc3cccc(C(CC(=O)O)C4CC4)c3)cc2CC(C)(C)C)c1 (centres unmarked) [Example 59, 3-(3-(((6-(2-chloro-5-methoxyphenyl)-5-(2,2-dimethylpropyl)pyridin-3-yl)oxy)methyl)phenyl)-3-cyclopropylpropanoic acid]
56 | CC(C)(C)Cc1cc(OCc2cccc(C(CC(=O)O)C3CC3)c2)cnc1-c1cc(C#N)ccc1F (centres unmarked) [Example 60, 3-(3-(((6-(5-cyano-2-fluorophenyl)-5-(2,2-dimethylpropyl)pyridin-3-yl)oxy)methyl)phenyl)-3-cyclopropylpropanoic acid]
8 | CC(C)(C)Cc1cc(OCc2cccc(C(CC(=O)O)C3CC3)c2)cnc1-c1ccc(OC(F)(F)F)cc1 (centres unmarked) [Example 61, 3-cyclopropyl-3-(3-(((5-(2,2-dimethylpropyl)-6-(4-(trifluoromethoxy)phenyl)pyridin-3-yl)oxy)methyl)phenyl)propanoic acid]
4 | CC(C)(C)Cc1cc(OCc2cccc(C(CC(=O)O)C3CC3)c2)cnc1-c1cccc(NS(C)(=O)=O)c1 (centres unmarked) [Example 62, 3-cyclopropyl-3-(3-(((5-(2,2-dimethylpropyl)-6-(3-((methylsulfonyl)amino)phenyl)pyridin-3-yl)oxy)methyl)phenyl)propanoic acid]
21 | Cc1cncc(-c2ncc(OCc3cccc(C(CC(=O)O)C4CC4)c3)cc2CC(C)(C)C)c1 (centres unmarked) [Example 63, 3-cyclopropyl-3-(3-(((3-(2,2-dimethylpropyl)-5′-methyl-2,3′-bipyridin-5-yl)oxy)methyl)phenyl)propanoic acid]
57 | COc1cncc(-c2ncc(OCc3cccc(C(CC(=O)O)C4CC4)c3)cc2CC(C)(C)C)c1 (centres unmarked) [Example 66, 3-cyclopropyl-3-(3-(((3-(2,2-dimethylpropyl)-5′-methoxy-2,3′-bipyridin-5-yl)oxy)methyl)phenyl)propanoic acid]
8 | CC(C)(C)Cc1cc(OCc2cccc(C(CC(=O)O)C3CC3)c2)cnc1-c1cccc(S(=O)(=O)N2CCOCC2)c1 (centres unmarked) [Example 67, 3-cyclopropyl-3-(3-(((5-(2,2-dimethylpropyl)-6-(3-(morpholin-4-ylsulfonyl)phenyl)pyridin-3-yl)oxy)methyl)phenyl)propanoic acid]
116 | CCOc1ccc(F)c(-c2ncc(OCc3cccc(C(CC(=O)O)C4CC4)c3)cc2CC(C)(C)C)c1 (centres unmarked) [Example 68, 3-cyclopropyl-3-(3-(((5-(2,2-dimethylpropyl)-6-(5-ethoxy-2-fluorophenyl)pyridin-3-yl)oxy)methyl)phenyl)propanoic acid]
